From patent publication US20250171438A1 (Agios Pharmaceuticals, Inc., priority 2022, published 2025)

biological target: T1, human PAH with the R408W mutation (Homo sapiens, UniProt P00439, R408W); test: Cell Based Phenylalanine Flux Assay; conditions: A375 cells expressing human R408W PAH; 24 hrs compound incubation; 13C-Tyrosine by LC-MS; average where tested multiple times; read-out: AC50
T1 construct: expressed in transfected cells
T1 sequence (P00439 1-452 R408W): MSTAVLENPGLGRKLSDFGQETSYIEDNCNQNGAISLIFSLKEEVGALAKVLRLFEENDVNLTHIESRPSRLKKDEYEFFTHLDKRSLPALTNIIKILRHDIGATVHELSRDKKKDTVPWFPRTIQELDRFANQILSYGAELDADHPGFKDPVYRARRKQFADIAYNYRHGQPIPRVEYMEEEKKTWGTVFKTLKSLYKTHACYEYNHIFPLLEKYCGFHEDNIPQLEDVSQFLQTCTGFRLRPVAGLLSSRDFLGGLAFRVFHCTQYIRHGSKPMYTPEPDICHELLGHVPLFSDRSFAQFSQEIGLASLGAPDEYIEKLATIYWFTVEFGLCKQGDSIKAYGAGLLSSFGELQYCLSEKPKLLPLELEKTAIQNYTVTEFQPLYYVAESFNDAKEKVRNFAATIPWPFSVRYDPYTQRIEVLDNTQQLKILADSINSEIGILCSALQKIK

| Structure (SMILES) | AC50 [µM] |
| --- | --- |
| CC(F)c1nc(C(F)F)c(C(=O)N2CCc3[nH]cnc3[C@H]2c2nc3c(F)cccc3s2)o1 (single isomer, unassigned) [Example 2075] | < 0.5 |
| CC(C)(O)c1ccc2c(C(=O)N3CCc4[nH]cnc4[C@@H]3c3nc4ccccc4s3)cnn2c1 [Example 1474, (R)-(4-(benzo[d]thiazol-2-yl)-6,7-dihydro-1H-imidazo[4,5-c]pyridin-5(4H)-yl)(6-(2-hydroxypropan-2-yl)pyrazolo[1,5-a]pyridin-3-yl)methanone] | 1 to 5 |
| N#Cc1nc(NC2CC2)oc1C(=O)N1CCc2[nH]cnc2[C@H]1c1nc2ccccc2s1 [Example 1699, (S)-5-(4-(benzo[d]thiazol-2-yl)-4,5,6,7-tetrahydro-1H-imidazo[4,5-c]pyridine-5-carbonyl)-2-(cyclopropylamino)oxazole-4-carbonitrile] | 1 to 5 |
| Cc1c(C(=O)N2CCc3[nH]cnc3[C@H]2c2nc3c(F)cccc3s2)cnn1CC(F)(F)F [Example 1919, (S)-(4-(4-fluorobenzo[d]thiazol-2-yl)-6,7-dihydro-1H-imidazo[4,5-c]pyridin-5(4H)-yl)(5-methyl-1-(2,2,2-trifluoroethyl)-1H-pyrazol-4-yl)methanone] | 0.5 to 1 |
| O=C(c1nnc(-c2ccccc2)o1)N1CCc2[nH]cnc2[C@H]1c1nc2ccccc2s1 [Example 1417] | < 0.5 |
| O=C(c1sc(N2CCOCC2)nc1C(F)(F)F)N1CCc2[nH]cnc2[C@H]1c1nc2c(F)cccc2s1 [Example 1633, (S)-(4-(4-fluorobenzo[d]thiazol-2-yl)-6,7-dihydro-1H-imidazo[4,5-c]pyridin-5(4H)-yl)(2-morpholino-4-(trifluoromethyl)thiazol-5-yl)methanone] | < 0.5 |
| O=C(c1cncs1)N1CCc2[nH]cnc2[C@H]1c1nc2ccc(Br)cc2[nH]1 [Example 947, (S)-(4-(6-bromo-1H-benzo[d]imidazol-2-yl)-6,7-dihydro-1H-imidazo[4,5-c]pyridin-5(4H)-yl)(thiazol-5-yl)methanone] | 0.5 to 1 |
| CN(C)CCn1nccc1C(=O)N1CCc2[nH]cnc2[C@@H]1c1nc2c(F)cccc2s1 [Example 1762, (R)-(1-(2-(dimethylamino)ethyl)-1H-pyrazol-5-yl)(4-(4-fluorobenzo[d]thiazol-2-yl)-6,7-dihydro-1H-imidazo[4,5-c]pyridin-5(4H)-yl)methanone] | 1 to 5 |
| CC(C)(O)c1nc(Cl)c(C(=O)N2CCc3[nH]cnc3[C@H]2c2nc3ccccc3s2)o1 [Example 1963] | < 0.5 |
| O=C(c1nccs1)N1CCc2[nH]cnc2[C@H]1c1nc2cccc(Br)c2s1 [Example 1200, (S)-(4-(7-bromobenzo[d]thiazol-2-yl)-6,7-dihydro-1H-imidazo[4,5-c]pyridin-5(4H)-yl)(thiazol-2-yl)methanone] | 0.5 to 1 |
| O=C(c1cnc(C2CC2)s1)N1CCc2[nH]cnc2[C@@H]1c1nc2ccccc2s1 [Example 1180, (R)-(4-(benzo[d]thiazol-2-yl)-6,7-dihydro-1H-imidazo[4,5-c]pyridin-5(4H)-yl)(2-cyclopropylthiazol-5-yl)methanone] | 1 to 5 |
| O=C(c1nccs1)N1CCc2[nH]cnc2[C@H]1c1nc2cccc(Cl)c2[nH]1 [Example 984, (S)-(4-(7-chloro-1H-benzo[d]imidazol-2-yl)-6,7-dihydro-1H-imidazo[4,5-c]pyridin-5(4H)-yl)(thiazol-2-yl)methanone] | 0.5 to 1 |
| O=C(CCC1CC1)N1CCc2[nH]cnc2[C@@H]1c1nc2ccc(Br)cc2[nH]1 [Example 934, (R)-1-(4-(6-bromo-1H-benzo[d]imidazol-2-yl)-6,7-dihydro-1H-imidazo[4,5-c]pyridin-5(4H)-yl)-3-cyclopropylpropan-1-one] | 1 to 5 |
| O=C(c1nnc(-c2cnn(CC(F)(F)F)c2)o1)N1CCc2[nH]cnc2[C@@H]1c1nc2c(F)cccc2s1 [Example 1843, (R)-(4-(4-fluorobenzo[d]thiazol-2-yl)-6,7-dihydro-1H-imidazo[4,5-c]pyridin-5(4H)-yl)(5-(1-(2,2,2-trifluoroethyl)-1H-pyrazol-4-yl)-1,3,4-oxadiazol-2-yl)methanone] | 1 to 5 |
| O=C(c1nnc(-c2cc[nH]n2)o1)N1CCc2[nH]cnc2[C@H]1c1nc2c(F)cccc2s1 [Example 1886] | 0.5 to 1 |
| O=C(c1cnco1)N1CCc2[nH]cnc2[C@H]1c1nc2cccc(F)c2s1 [Example 1247, (S)-(4-(7-fluorobenzo[d]thiazol-2-yl)-6,7-dihydro-1H-imidazo[4,5-c]pyridin-5(4H)-yl)(oxazol-5-yl)methanone] | 1 to 5 |
| Cc1csc(CCC(=O)N2CCc3[nH]cnc3[C@H]2c2nc3ccccc3s2)n1 [Example 1079] | 0.5 to 1 |
| Cc1nc(CN(C)C)oc1C(=O)N1CCc2[nH]cnc2[C@@H]1c1nc2ccccc2s1 [Example 1694, (R)-(4-(benzo[d]thiazol-2-yl)-6,7-dihydro-1H-imidazo[4,5-c]pyridin-5(4H)-yl)(2-((dimethylamino)methyl)-4-methyloxazol-5-yl)methanone] | > 5 |
| O=C(c1nnc(-c2ccc(F)cn2)o1)N1CCc2[nH]cnc2[C@H]1c1nc2ccccc2s1 (single isomer, unassigned) [Example 1365] | < 0.5 |
| CC1(C(=O)N2CCc3[nH]cnc3[C@@H]2c2nc3ccccc3s2)CC1(F)F (single isomer, unassigned) [Example 1289] | 1 to 5 |
| O=C(c1nnc(-c2cc[nH]n2)o1)N1CCc2[nH]cnc2[C@@H]1c1nc2ccccc2s1 [Example 1900, (R)-(5-(1H-pyrazol-3-yl)-1,3,4-oxadiazol-2-yl)(4-(benzo[d]thiazol-2-yl)-6,7-dihydro-1H-imidazo[4,5-c]pyridin-5(4H)-yl)methanone] | 1 to 5 |
| CC(C)n1cc(-c2ncc(C(=O)N3CCc4[nH]cnc4[C@@H]3c3nc4ccccc4s3)o2)cn1 [Example 1416, (R)-(4-(benzo[d]thiazol-2-yl)-6,7-dihydro-1H-imidazo[4,5-c]pyridin-5(4H)-yl)(2-(1-isopropyl-1H-pyrazol-4-yl)oxazol-5-yl)methanone] | 1 to 5 |
| O=C(c1ncc(Cl)s1)N1CCc2[nH]cnc2[C@@H]1c1nc2ccccc2[nH]1 [Example 920, (R)-(4-(1H-benzo[d]imidazol-2-yl)-6,7-dihydro-1H-imidazo[4,5-c]pyridin-5(4H)-yl)(5-chlorothiazol-2-yl)methanone] | > 5 |
| Cc1nc(C2CC2)oc1C(=O)N1CCc2[nH]cnc2[C@@H]1c1nc2ccccc2s1 [Example 1396, (R)-(4-(benzo[d]thiazol-2-yl)-6,7-dihydro-1H-imidazo[4,5-c]pyridin-5(4H)-yl)(2-cyclopropyl-4-methyloxazol-5-yl)methanone] | > 5 |
| Cc1nc(-c2cnn(CC(F)(F)F)c2)oc1C(=O)N1CCc2[nH]cnc2[C@@H]1c1nc2ccccc2s1 [Example 1414, (R)-(4-(benzo[d]thiazol-2-yl)-6,7-dihydro-1H-imidazo[4,5-c]pyridin-5(4H)-yl)(4-methyl-2-(1-(2,2,2-trifluoroethyl)-1H-pyrazol-4-yl)oxazol-5-yl)methanone] | 1 to 5 |

same assay, conditions: A375 cells expressing human R408W PAH; 24 hrs with compound; 13C-Tyrosine by LC-MS; average where tested multiple times; read-out: AC50

| Structure (SMILES) | AC50 [µM] |
| --- | --- |
| O=C(CCCc1ccc(F)cc1)N1CCc2[nH]cnc2[C@H]1c1nc2ccccc2[nH]1 [(S)-1-(4-(1H-benzo[d]imidazol-2-yl)-1,4,6,7-tetrahydro-5H-imidazo[4,5-c]pyridin-5-yl)-4-(4-fluorophenyl)butan-1-one] | 1 to 5 |
| Cc1nnc(C(=O)N2CC(C)c3[nH]cnc3C2c2nc3ccccc3s2)o1 (centres unmarked) | > 5 |
| Cc1ncc(C(=O)N2CCc3[nH]cnc3C2c2nc3ccccc3s2)s1 (centres unmarked) | 1 to 5 |
| O=C(c1cnn2cccc(F)c12)N1CCc2[nH]cnc2C1c1nc2ccc(Br)cc2[nH]1 (centres unmarked) | > 5 |
| O=C(Cc1coc(C(F)F)n1)N1CCc2[nH]cnc2C1c1nc2ccccc2s1 (centres unmarked) | 1 to 5 |
| O=C(Cc1nc(C(F)(F)F)cs1)N1CCc2[nH]cnc2[C@H]1c1nc2ccccc2[nH]1 [(S)-1-(4-(1H-benzo[d]imidazol-2-yl)-1,4,6,7-tetrahydro-5H-imidazo[4,5-c]pyridin-5-yl)-2-(4-(trifluoromethyl)thiazol-2-yl)ethan-1-one] | 1 to 5 |
| O=C(c1cnn2ccccc12)N1CCc2[nH]cnc2C1c1nc2ccc(Cl)cc2s1 (centres unmarked) | > 5 |
| O=C(c1nncs1)N1CCc2[nH]cnc2C1c1nc2ccccc2[nH]1 (centres unmarked) | > 5 |
| c1ccc2[nH]c(C3c4nc[nH]c4CCN3Cc3cncs3)nc2c1 (centres unmarked) | > 5 |
| COCc1cc(C(=O)N2CCc3[nH]cnc3C2c2nc3c(F)cccc3s2)n(C)n1 (centres unmarked) | > 5 |
| COC1CN(C(=O)N2CCc3[nH]cnc3C2c2nc3ccccc3s2)C1 (centres unmarked) | 1 to 5 |
| O=C(c1cnn2ccccc12)N1CCc2[nH]cnc2C1c1nc2ccc(F)cc2[nH]1 (centres unmarked) | > 5 |
| Cc1nnc(C(=O)N2CCc3[nH]cnc3C2c2nc3ccccc3[nH]2)o1 (centres unmarked) | 1 to 5 |
| O=C(CC1CC1)N1CCc2[nH]cnc2C1c1nc2c(F)cccc2s1 (centres unmarked) | > 5 |
| O=C(C1CCCC1)N1CCc2[nH]cnc2[C@H]1c1nc2ccccc2[nH]1 [(S)-(4-(1H-benzo[d]imidazol-2-yl)-1,4,6,7-tetrahydro-5H-imidazo[4,5-c]pyridin-5-yl)(cyclopentyl)methanone] | 1 to 5 |
| Cc1nc(C(C)(C)O)oc1C(=O)N1CC(C)c2[nH]cnc2C1c1nc2c(F)cccc2s1 (centres unmarked) | 1 to 5 |
| O=C(C1CC1F)N1CCc2[nH]cnc2C1c1nc2ccccc2s1 (centres unmarked) | 1 to 5 |
| O=C(Cc1ncc(-c2ccccc2)s1)N1CCc2[nH]cnc2C1c1nc2ccccc2s1 (centres unmarked) | > 5 |
| O=C(c1nc2ccccc2s1)N1CCc2[nH]cnc2C1c1nc2c(F)cccc2s1 (centres unmarked) | 1 to 5 |
